Reference: patent US20070060512A1, “Dipeptidyl-peptidase protected protein” (priority 2003, published 2007)
Where no end group is shown, it is not given here.

Columns and labels:
Zucker rats [1] = experiment: Glucose Tolerance Test in Zucker rats; type: in vivo, rat; conditions: fasted Zucker rats, subcutaneous injection 30 minutes before glucose 1.5 mg/g body weight; versus untreated animals
Procedure: In this Example, modified GLP-1/mTf of the present invention is used as a therapeutic agent to treat diabetes. Modified GLP-1/mTf is administered to Zucker rats, a standard animal model for type II diabetes. Zucker rats have abnormally high blood glucose levels. […] Zucker rats are fasted overnight and then treated with H-GLP-1 or H-GLP-1 fused to transferrin (H-GLP-1/mTf). Thirty minutes after subcutaneous injection of H-GLP-1 or H-GLP-1/mTf, the animals are subjected to a Glucose Tolerance Test (GTT). For this test, fasted animals are fed glucose solution (1.5 mg/g body weight), and the blood glucose is measured at appropriate time intervals.

Zucker rats [2] = experiment: Fasting glucose of Zucker rats without glucose administration; type: in vivo, rat; conditions: versus untreated animals
Description: In a further experiment, modified H-GLP-1 or H-GLP-1/mTf is used to normalize the high fasting glucose of the Zucker rats without glucose administration.

recombinant human DPP-IV = target: T1, recombinant human DPP-IV (Homo sapiens, UniProt P27487); experiment: Dipeptidylpeptidase-IV treatment of mTf fusion proteins, cyclic AMP stimulation assay in CHO-GLP1R cells; type: in vitro ADME; conditions: 2 μM fusion protein, DPP-IV 1 μg/μL, room temperature 2 hours; cAMP in CHO-GLP1R cells
T1 construct: purchased R&D Systems
T1 sequence (P27487 whole entry, the tested form may be a part): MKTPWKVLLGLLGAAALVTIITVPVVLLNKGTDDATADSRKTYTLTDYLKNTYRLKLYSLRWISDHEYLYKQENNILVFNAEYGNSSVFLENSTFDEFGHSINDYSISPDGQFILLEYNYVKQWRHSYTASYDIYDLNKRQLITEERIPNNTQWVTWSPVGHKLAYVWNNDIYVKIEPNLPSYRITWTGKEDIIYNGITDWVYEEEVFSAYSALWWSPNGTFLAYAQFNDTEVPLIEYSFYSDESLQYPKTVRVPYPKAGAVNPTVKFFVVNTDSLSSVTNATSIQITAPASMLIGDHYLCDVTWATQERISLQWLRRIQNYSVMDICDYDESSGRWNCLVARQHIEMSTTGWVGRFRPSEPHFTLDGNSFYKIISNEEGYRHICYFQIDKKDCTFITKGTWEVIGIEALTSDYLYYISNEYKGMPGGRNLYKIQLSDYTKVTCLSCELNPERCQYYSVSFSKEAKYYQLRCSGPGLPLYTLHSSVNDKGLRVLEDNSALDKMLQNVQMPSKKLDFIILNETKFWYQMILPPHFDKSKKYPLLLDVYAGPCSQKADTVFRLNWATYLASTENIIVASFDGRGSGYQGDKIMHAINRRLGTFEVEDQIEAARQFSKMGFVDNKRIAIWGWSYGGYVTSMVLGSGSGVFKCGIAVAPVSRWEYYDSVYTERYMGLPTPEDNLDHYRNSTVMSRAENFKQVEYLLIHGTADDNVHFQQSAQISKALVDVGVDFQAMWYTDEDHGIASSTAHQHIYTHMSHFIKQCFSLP
Procedure: Control reactions excluding DPP-IV were set-up in parallel for each fusion protein. The digests were incubated at room temperature for 2 hours, at which time the reactions were diluted 20-fold in Krebs-Ringer buffer (Biosource International) supplemented with 1 mM IBMX (Calbiochem).
Tissue culture plates (24-well) were seeded with CHO-GLP1R cells at a density of 1×10^5 cells per/well in RPMI/10% FBS medium one day prior to treatment. The next day the cells appeared uniformly distributed with an approximate confluency of 60-80 percent. One day after seeding the culture plates the cells were washed twice with Krebs-Ringer buffer (KRB) followed by incubation in KRB for 1 hr at 37° C. to lower the intracellular levels of cAMP. This was followed by incubation for 10 minutes in KRB/IBMX to inhibit intracellular enzymes that break down cAMP. Dilutions of each test compound were prepared in KRB/IBMX and triplicate wells of CHO-GLP1R cells were treated with 0.15 ml of test compound per well for exactly 50 minutes at 37° C. The treatment was halted by washing the cultures two times with ice-cold phosphate-buffered saline. […]

[3] = second N-terminal alanine replaced with serine; cited from earlier work
[4] = compared to GLP-1; cited from earlier work

Compound	normalization of blood glucose level in Glucose Tolerance Test (Zucker rats [1])	fasting blood glucose level (Zucker rats [2])	resistance to DPP-IV (recombinant human DPP-IV)	insulinotropic action [3]	plasma stability [4]
CC[C@H](C)[C@H](NC(=O)[C@H](Cc1ccccc1)NC(=O)[C@H](CCC(=O)O)NC(=O)[C@H](CCCCN)NC(=O)[C@H](C)NC(=O)[C@H](C)NC(=O)[C@H](CCC(N)=O)NC(=O)CNC(=O)[C@H](CCC(=O)O)NC(=O)[C@H](CC(C)C)NC(=O)[C@H](Cc1ccc(O)cc1)NC(=O)[C@H](CO)NC(=O)[C@H](CO)NC(=O)[C@@H](NC(=O)[C@H](CC(=O)O)NC(=O)[C@H](CO)NC(=O)[C@@H](NC(=O)[C@H](Cc1ccccc1)NC(=O)[C@@H](NC(=O)CNC(=O)[C@H](CCC(=O)O)NC(=O)[C@H](C)NC(=O)[C@H](Cc1c[nH]cn1)NC(=O)[C@@H](N)Cc1c[nH]cn1)[C@@H](C)O)[C@@H](C)O)C(C)C)C(=O)N[C@@H](C)C(=O)N[C@@H](Cc1c[nH]c2ccccc12)C(=O)N[C@@H](CC(C)C)C(=O)N[C@H](C(=O)N[C@@H](CCCCN)C(=O)NCC(=O)N[C@@H](CCCNC(=N)N)C(=O)O)C(C)C [H-GLP-1]	faster normalization of blood glucose level	significant drop			
H-GLP-1/mTf: H-GLP-1(7-36) fused to modified transferrin (mTf), expressed in Saccharomyces from pREX0368 (HHAEGTFTSDVSSYLEGQAAKEFIAWLVKGR; also: fused to modified transferrin (mTf))	faster normalization of blood glucose level	significant drop	more resistant to DPP-IV than GLP-1/mTf		
[Ser^8]GLP-1: GLP-1 analog in which the second N-terminal alanine is replaced with serine (Ritzel et al.) (HSEGTFTSDVSSYLEGQAAKEFIAWLVKGRG; Glucagon-like peptide 1(7-37); UniProt P01275 98-128, looked up, variant A8S)				did not impair the insulinotropic action	increased plasma stability as compared to GLP-1
